From US20240067693A1, “POLYPEPTIDES AND USES THEREOF” (MEDIMMUNE LIMITED, priority 2020, published 2024)
Numbered stars: 1 amine (or outer) side, 2 acyl side, 3 side chain; on linkers, the order of the positions; unused ones are H or OH. Bridge positions count the residues as written; N and C are the ends. Square brackets hold non-standard residues; d marks the D form. Side chains are listed from the residue outwards. Peptide text beside a SMILES is read from it. * marks the point of attachment. C20 diacid = O=C(O)CCCCCCCCCCCCCCCCCCC(=O)*; C18 diacid = O=C(O)CCCCCCCCCCCCCCCCC(=O)*; γGlu = O=C(O)[C@H](CCC(=O)[*:2])N[*:1]; αMeF = C[C@](N)(Cc1ccccc1)C(=O)O; Aib = CC(C)(N)C(=O)O

Tests used:
[1] = target: T1, human calcitonin receptor (hCTR) (Homo sapiens, UniProt P30988); assay: cAMP production in 1321N1 cells with stable recombinant expression of human calcitonin receptor (hCTR); format: cell-based; settings: cAMP, 1321N1 cells, assay buffer with 0.1% BSA; read-out: EC50 (pM) hCTR
T1 construct: expressed in transfected cells
T1 sequence (P30988 25-474): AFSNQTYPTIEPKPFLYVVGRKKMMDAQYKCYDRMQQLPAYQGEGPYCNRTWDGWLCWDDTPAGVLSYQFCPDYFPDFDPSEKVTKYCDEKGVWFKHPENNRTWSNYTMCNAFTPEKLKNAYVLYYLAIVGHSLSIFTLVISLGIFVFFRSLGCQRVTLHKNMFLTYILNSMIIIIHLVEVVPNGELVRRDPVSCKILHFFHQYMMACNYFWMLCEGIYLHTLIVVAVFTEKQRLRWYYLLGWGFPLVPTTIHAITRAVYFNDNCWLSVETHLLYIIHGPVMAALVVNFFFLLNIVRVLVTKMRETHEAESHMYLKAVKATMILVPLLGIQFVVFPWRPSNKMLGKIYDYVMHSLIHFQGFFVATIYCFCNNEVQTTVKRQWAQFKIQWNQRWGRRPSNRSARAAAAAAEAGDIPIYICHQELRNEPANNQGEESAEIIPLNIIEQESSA
How it was run: (§1)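 EC50 values come from 4-parameter logistic fits of HTRF cAMP signal, normalised to maximal calcitonin or amylin effect. Peptides were tested in duplicate for 30 min at RT in IBMX-containing (0.5 mM) BSA/HEPES buffer pH 7.4 on stable 1321N1 (human CTR, AMYR3) or HEK (rat CTR, AMYR3) lines.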

[2] = target: T2, rat amylin receptor (calcitonin receptor co-expressed with receptor activity modifying protein, RAMP3) (Rat AMYR3) (Rattus norvegicus, UniProt P32214+Q9JJ73); assay: cAMP production in HEK cells with stable recombinant expression of rat amylin receptor (Rat AMYR3); format: cell-based; settings: assay buffer with 0.1% BSA
T2 construct: expressed in transfected cells
T2 sequence (P32214 25-516): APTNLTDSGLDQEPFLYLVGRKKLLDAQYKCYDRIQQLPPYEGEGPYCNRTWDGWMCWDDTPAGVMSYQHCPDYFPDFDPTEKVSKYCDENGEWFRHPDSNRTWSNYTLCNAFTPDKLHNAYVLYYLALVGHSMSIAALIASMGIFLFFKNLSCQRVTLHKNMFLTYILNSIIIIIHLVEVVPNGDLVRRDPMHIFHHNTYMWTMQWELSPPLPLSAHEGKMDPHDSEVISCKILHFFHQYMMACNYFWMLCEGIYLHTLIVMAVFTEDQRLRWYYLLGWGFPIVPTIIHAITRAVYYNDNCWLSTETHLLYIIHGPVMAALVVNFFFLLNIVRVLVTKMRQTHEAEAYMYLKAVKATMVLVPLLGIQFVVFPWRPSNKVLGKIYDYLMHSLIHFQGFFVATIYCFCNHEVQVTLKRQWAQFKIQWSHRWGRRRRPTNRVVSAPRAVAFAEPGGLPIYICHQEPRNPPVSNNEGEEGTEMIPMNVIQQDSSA
T2 sequence (Q9JJ73 23-147 partner): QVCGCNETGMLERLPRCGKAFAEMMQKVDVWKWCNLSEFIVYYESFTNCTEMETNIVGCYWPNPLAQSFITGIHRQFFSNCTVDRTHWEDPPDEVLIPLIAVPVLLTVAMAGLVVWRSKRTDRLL
How it was run: as §1

[3] = Thioflavin T fibrillation assay; format: physicochemical; settings: for Time taken to detect increase in fluorescence intensity: ThT fibrillation assay, peptide 1 mg/mL in 25 mM sodium acetate buffer pH 4.0, 6 days at 37 °C with shaking, >144 h = no increase
How it was run: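 Peptides at 1 mg/mL in 25 mM sodium acetate pH 4.0 with ThT (from 0.25 mM stock), incubated 6 days at 37 °C with intermittent orbital shaking at 500–750 rpm. Fluorescence (ex 444/em 480 nm) read every 30 min; value is average time to a rise in baseline-corrected signal.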

Row | EC50 [1] | EC50 [2] | fibril-forming tendency ([3]; ThT assay, 1 mg/mL, pH 4.0, 37 °C, compared to pramlintide) | Time taken to detect increase in fluorescence intensity [3] | Structure (SMILES)
1 | 1340 pM | 16 pM | increases the fibril-forming tendency | <5 h | CC[C@H](C)[C@H](NC(=O)[C@@H]1CCCN1C(=O)CNC(=O)[C@H](Cc1ccccc1)NC(=O)[C@H](CC(N)=O)NC(=O)[C@H](CC(N)=O)NC(=O)[C@H](CO)NC(=O)[C@H](CO)NC(=O)[C@H](Cc1c[nH]cn1)NC(=O)[C@@H](NC(=O)[C@H](CC(C)C)NC(=O)[C@H](Cc1ccccc1)NC(=O)[C@H](CC(N)=O)NC(=O)[C@H](C)NC(=O)[C@H](CC(C)C)NC(=O)[C@H](CCCNC(=N)N)NC(=O)[C@H](CCC(N)=O)NC(=O)[C@@H](NC(=O)[C@H](C)NC(=O)[C@@H]1CSSC[C@H](NC(=O)[C@H](CCCCN)NC(=O)CC[C@H](NC(=O)CCCCCCCCCCCCCCCCCCC(=O)O)C(=O)O)C(=O)N[C@@H](CC(N)=O)C(=O)N[C@@H]([C@@H](C)O)C(=O)N[C@@H](C)C(=O)N[C@@H]([C@@H](C)O)C(=O)N1)[C@@H](C)O)C(C)C)C(=O)N[C@@H](CC(C)C)C(=O)N1CCC[C@H]1C(=O)N1CCC[C@H]1C(=O)N[C@H](C(=O)N[C@@H](CC(N)=O)C(=O)N[C@H](C(=O)NCC(=O)N[C@@H](CO)C(=O)N[C@@H](CC(N)=O)C(=O)N[C@H](C(=O)N[C@@H](Cc1ccc(O)cc1)C(N)=O)[C@@H](C)O)C(C)C)[C@@H](C)O [Peptide 112] ({C20 diacid-γGlu}-KCNTATCATQRLANFLVHSSNNFGPILPPTNVGSNTY-NH2; disulfide 2-7)
2 | 4590 pM | 10.4 pM |  | >144 h | CC[C@H](C)[C@H](NC(=O)[C@@H]1CCCN1C(=O)CNC(=O)[C@](C)(Cc1ccccc1)NC(=O)[C@H](CC(N)=O)NC(=O)[C@H](CC(N)=O)NC(=O)[C@H](CO)NC(=O)[C@H](CO)NC(=O)[C@H](Cc1c[nH]cn1)NC(=O)[C@H](CCCNC(=N)N)NC(=O)[C@H](CC(C)C)NC(=O)[C@H](Cc1ccccc1)NC(=O)[C@H](CC(N)=O)NC(=O)[C@H](C)NC(=O)[C@H](CC(C)C)NC(=O)[C@H](CCCNC(=N)N)NC(=O)[C@H](CCC(N)=O)NC(=O)[C@@H](NC(=O)[C@H](C)NC(=O)[C@@H]1CSSC[C@H](NC(=O)[C@@H](N)CCCCNC(=O)CC[C@H](NC(=O)CC[C@H](NC(=O)CCCCCCCCCCCCCCCCC(=O)O)C(=O)O)C(=O)O)C(=O)N[C@@H](CC(N)=O)C(=O)N[C@@H]([C@@H](C)O)C(=O)N[C@@H](C)C(=O)N[C@@H]([C@@H](C)O)C(=O)N1)[C@@H](C)O)C(=O)N[C@@H](CC(C)C)C(=O)N1CCC[C@H]1C(=O)N1CCC[C@H]1C(=O)N[C@H](C(=O)N[C@@H](CC(N)=O)C(=O)N[C@H](C(=O)NCC(=O)N[C@@H](CO)C(=O)N[C@@H](CC(N)=O)C(=O)N[C@H](C(=O)N[C@@H](Cc1ccc(O)cc1)C(N)=O)[C@@H](C)O)C(C)C)[C@@H](C)O [Peptide 20, K(γE-γE-C18diacid)[CNTATC]ATQRLANFLRHSSNN(αMePhe)GPILPPTNVGSNTY-amide] (H-K([γGlu-γGlu-C18 diacid])CNTATCATQRLANFLRHSSNN[αMeF]GPILPPTNVGSNTY-NH2; disulfide 2-7; N-terminus assumed)
3 | 5460 pM | 10.3 pM |  | >144 h | CC[C@H](C)[C@H](NC(=O)[C@@H]1CCCN1C(=O)CNC(=O)[C@](C)(Cc1ccccc1)NC(=O)[C@H](CC(N)=O)NC(=O)[C@H](CC(N)=O)NC(=O)[C@H](CO)NC(=O)[C@H](CO)NC(=O)[C@H](Cc1c[nH]cn1)NC(=O)[C@H](CCCNC(=N)N)NC(=O)[C@H](CC(C)C)NC(=O)[C@H](Cc1ccccc1)NC(=O)[C@H](CC(N)=O)NC(=O)[C@H](C)NC(=O)[C@H](CC(C)C)NC(=O)[C@H](CCCNC(=N)N)NC(=O)[C@H](CCC(N)=O)NC(=O)[C@@H](NC(=O)[C@H](C)NC(=O)[C@@H]1CSSC[C@H](NC(=O)[C@H](CCCCN)NC(=O)[C@@H](N)CCCCNC(=O)CC[C@H](NC(=O)CCCCCCCCCCCCCCCCC(=O)O)C(=O)O)C(=O)N[C@@H](CC(N)=O)C(=O)N[C@@H]([C@@H](C)O)C(=O)N[C@@H](C)C(=O)N[C@@H]([C@@H](C)O)C(=O)N1)[C@@H](C)O)C(=O)N[C@@H](CC(C)C)C(=O)N1CCC[C@H]1C(=O)N1CCC[C@H]1C(=O)N[C@H](C(=O)N[C@@H](CCC(=O)O)C(=O)N[C@H](C(=O)NCC(=O)N[C@@H](CO)C(=O)N[C@@H](CC(N)=O)C(=O)N[C@H](C(=O)N[C@@H](Cc1ccc(O)cc1)C(N)=O)[C@@H](C)O)C(C)C)[C@@H](C)O [Peptide 15, K(γE-C18diacid)K[CNTATC]ATQRLANFLRHSSNN(αMePhe)GPILPPTEVGSNTY-amide] (H-K([γGlu-C18 diacid])KCNTATCATQRLANFLRHSSNN[αMeF]GPILPPTEVGSNTY-NH2; disulfide 3-8; N-terminus assumed)
4 | 3330 pM | 12 pM |  | >144 h | CC[C@H](C)[C@H](NC(=O)[C@@H]1CCCN1C(=O)CNC(=O)[C@H](Cc1ccccc1)NC(=O)[C@H](CC(N)=O)NC(=O)C(C)(C)NC(=O)[C@H](CO)NC(=O)[C@H](CO)NC(=O)[C@H](Cc1c[nH]cn1)NC(=O)[C@@H](NC(=O)[C@H](CC(C)C)NC(=O)[C@H](Cc1ccccc1)NC(=O)[C@H](CC(N)=O)NC(=O)[C@H](C)NC(=O)[C@H](CC(C)C)NC(=O)[C@H](CCCNC(=N)N)NC(=O)[C@H](CCC(N)=O)NC(=O)[C@@H](NC(=O)[C@H](C)NC(=O)[C@@H]1CSSC[C@H](NC(=O)[C@H](CCCCN)NC(=O)[C@@H](N)CCCCNC(=O)CC[C@H](NC(=O)CCCCCCCCCCCCCCCCC(=O)O)C(=O)O)C(=O)N[C@@H](CC(N)=O)C(=O)N[C@@H]([C@@H](C)O)C(=O)N[C@@H](C)C(=O)N[C@@H]([C@@H](C)O)C(=O)N1)[C@@H](C)O)C(C)C)C(=O)N[C@@H](CC(C)C)C(=O)N1CCC[C@H]1C(=O)N1CCC[C@H]1C(=O)N[C@H](C(=O)N[C@@H](Cc1c[nH]cn1)C(=O)N[C@H](C(=O)NCC(=O)N[C@@H](CO)C(=O)N[C@@H](CC(N)=O)C(=O)N[C@H](C(=O)N[C@@H](Cc1ccc(O)cc1)C(N)=O)[C@@H](C)O)C(C)C)[C@@H](C)O [Peptide 40, K(γE-C18diacid)K[CNTATC]ATQRLANFLVHSS(Aib)NFGPILPPTHVGSNTY-amide] (H-K([γGlu-C18 diacid])KCNTATCATQRLANFLVHSS[Aib]NFGPILPPTHVGSNTY-NH2; disulfide 3-8)
